Data from ChEMBL document CHEMBL3885861, “Open TG-GATES”.

Organism: Rattus norvegicus
Assay: Open TG-GATES - Regimen: Daily Repeat
Type: toxicity, organism-based, Sprague-Dawley
Design: regimen Daily Repeat, gender Male, age 6 weeks
Conditions: in vivo, po, 100 mg/kg, route gavage, dose level Low; for APTT / Bas / Eos / Fbg / Hb / Ht / Lym / MCH / MCHC / MCV / Mono / Neu / PT / Plat / RBC / Ret / WBC: tissue Blood; for KIDNEY_L / KIDNEY_R / KIDNEY_TOTAL: tissue Kidney; for LIVER: tissue Liver; for A/G / ALP / ALT / AST / BUN / CRE / Ca / Cl / DBIL / GLC / IP / K / LDH / Na / PL / RALB / TBIL / TC / TG / TP / gamma-GTP: tissue Plasma

CCCCNC(=O)NS(=O)(=O)c1ccc(C)cc1 [TOLBUTAMIDE]
TERMINAL_BW (72 h, time 3 day): 233.9 g | APTT (72 h, time 3 day): 20.4 s | Bas (72 h, time 3 day): 0.2% | Eos (72 h, time 3 day): 1.2% | Fbg (72 h, time 3 day): 283.2 mg/dL | Hb (72 h, time 3 day): 13.7 g/dL | Ht (72 h, time 3 day): 42% | Lym (72 h, time 3 day): 80.2% | MCH (72 h, time 3 day): 20.2 pg | MCHC (72 h, time 3 day): 32.7% | MCV (72 h, time 3 day): 61.9 fL | Mono (72 h, time 3 day): 2.2% | Neu (72 h, time 3 day): 15.8% | PT (72 h, time 3 day): 13.2 s | Plat (72 h, time 3 day): 118.8 x10_4/uL | RBC (72 h, time 3 day): 680.4 x10_4/ul | Ret (72 h, time 3 day): 5.8% | WBC (72 h, time 3 day): 98.1 x10_2/uL | KIDNEY_L (72 h, time 3 day): 1 g | KIDNEY_R (72 h, time 3 day): 1 g | KIDNEY_TOTAL (72 h, time 3 day): 2 g | LIVER (72 h, time 3 day): 11.3 g | A/G (72 h, time 3 day): 0.9 | ALP (72 h, time 3 day): 1905.6 IU/L | ALT (72 h, time 3 day): 46.2 IU/L | AST (72 h, time 3 day): 73.8 IU/L | BUN (72 h, time 3 day): 15 mg/dL | CRE (72 h, time 3 day): 0.2 mg/dL | Ca (72 h, time 3 day): 11.1 mg/dL | Cl (72 h, time 3 day): 104.6 meq/L | DBIL (72 h, time 3 day): 0.01 mg/dL | GLC (72 h, time 3 day): 180.4 mg/dL | IP (72 h, time 3 day): 8.4 mg/dL | K (72 h, time 3 day): 3.9 meq/L | LDH (72 h, time 3 day): 68.8 IU/L | Na (72 h, time 3 day): 142.6 meq/L | PL (72 h, time 3 day): 156.4 mg/dL | RALB (72 h, time 3 day): 2.6 g/dL | TBIL (72 h, time 3 day): 0.058 mg/dL | TC (72 h, time 3 day): 77 mg/dL | TG (72 h, time 3 day): 99.4 mg/dL | TP (72 h, time 3 day): 5.5 g/dL | gamma-GTP (72 h, time 3 day): 1 IU/L | TERMINAL_BW ([…], time 7 day): 273.5 g | TERMINAL_BW ([…], time 14 day): 313.3 g | TERMINAL_BW ([…], time 28 day): 400.3 g | APTT ([…], time 7 day): 16.9 s | Bas ([…], time 7 day): 0% | Eos ([…], time 7 day): 1% | Fbg ([…], time 7 day): 303.2 mg/dL | Hb ([…], time 7 day): 13.6 g/dL | Ht ([…], time 7 day): 40.9% | Lym ([…], time 7 day): 74.4% | MCH ([…], time 7 day): 20.4 pg | MCHC ([…], time 7 day): 33.2% | MCV ([…], time 7 day): 61.4 fL | Mono ([…], time 7 day): 2% | Neu ([…], time 7 day): 21.8% | PT ([…], time 7 day): 12.5 s | Plat ([…], time 7 day): 130 x10_4/uL | RBC ([…], time 7 day): 667 x10_4/ul | Ret ([…], time 7 day): 5.4% | WBC ([…], time 7 day): 123.8 x10_2/uL | APTT ([…], time 14 day): 18.6 s | Bas ([…], time 14 day): 0.2% | Eos ([…], time 14 day): 0.8% | Fbg ([…], time 14 day): 284.2 mg/dL | Hb ([…], time 14 day): 14.2 g/dL | Ht ([…], time 14 day): 43.5% | Lym ([…], time 14 day): 81% | MCH ([…], time 14 day): 19.5 pg | MCHC ([…], time 14 day): 32.6% | MCV ([…], time 14 day): 60 fL | Mono ([…], time 14 day): 1.8% | Neu ([…], time 14 day): 15.8% | PT ([…], time 14 day): 13.2 s | Plat ([…], time 14 day): 120.7 x10_4/uL | RBC ([…], time 14 day): 726.6 x10_4/ul | Ret ([…], time 14 day): 4.1% | WBC ([…], time 14 day): 100.3 x10_2/uL | APTT ([…], time 28 day): 17.5 s | Bas ([…], time 28 day): 0.6% | Eos ([…], time 28 day): 1.2% | Fbg ([…], time 28 day): 287.2 mg/dL | Hb ([…], time 28 day): 15.6 g/dL | Ht ([…], time 28 day): 46.6% | Lym ([…], time 28 day): 80.4% | MCH ([…], time 28 day): 18.8 pg | MCHC ([…], time 28 day): 33.5% | MCV ([…], time 28 day): 56.1 fL | Mono ([…], time 28 day): 2.4% | Neu ([…], time 28 day): 14.8% | PT ([…], time 28 day): 13.5 s | Plat ([…], time 28 day): 102.7 x10_4/uL | RBC ([…], time 28 day): 831.6 x10_4/ul | Ret ([…], time 28 day): 2.4% | WBC ([…], time 28 day): 116.4 x10_2/uL | KIDNEY_L ([…], time 7 day): 1.2 g | KIDNEY_R ([…], time 7 day): 1.2 g | KIDNEY_TOTAL ([…], time 7 day): 2.3 g | KIDNEY_L ([…], time 14 day): 1.2 g | KIDNEY_R ([…], time 14 day): 1.2 g | KIDNEY_TOTAL ([…], time 14 day): 2.4 g | KIDNEY_L ([…], time 28 day): 1.3 g | KIDNEY_R ([…], time 28 day): 1.3 g | KIDNEY_TOTAL ([…], time 28 day): 2.7 g | LIVER ([…], time 7 day): 12.8 g | LIVER ([…], time 14 day): 13.1 g | LIVER ([…], time 28 day): 15.8 g | A/G ([…], time 7 day): 0.9 | ALP ([…], time 7 day): 1801.2 IU/L | ALT ([…], time 7 day): 43.8 IU/L | AST ([…], time 7 day): 68 IU/L | BUN ([…], time 7 day): 17.6 mg/dL | CRE ([…], time 7 day): 0.2 mg/dL | Ca ([…], time 7 day): 10.9 mg/dL | Cl ([…], time 7 day): 104.4 meq/L | DBIL ([…], time 7 day): 0.01 mg/dL | GLC ([…], time 7 day): 197.4 mg/dL | IP ([…], time 7 day): 7.9 mg/dL | K ([…], time 7 day): 4.1 meq/L | LDH ([…], time 7 day): 55.6 IU/L | Na ([…], time 7 day): 141.8 meq/L | PL ([…], time 7 day): 165.2 mg/dL | RALB ([…], time 7 day): 2.6 g/dL | TBIL ([…], time 7 day): 0.056 mg/dL | TC ([…], time 7 day): 79.6 mg/dL | TG ([…], time 7 day): 138.4 mg/dL | TP ([…], time 7 day): 5.5 g/dL | gamma-GTP ([…], time 7 day): 1.2 IU/L | A/G ([…], time 14 day): 0.8 | ALP ([…], time 14 day): 1429.8 IU/L | ALT ([…], time 14 day): 37.2 IU/L | AST ([…], time 14 day): 67.4 IU/L | BUN ([…], time 14 day): 16.8 mg/dL | CRE ([…], time 14 day): 0.2 mg/dL | Ca ([…], time 14 day): 10.7 mg/dL | Cl ([…], time 14 day): 104.6 meq/L | DBIL ([…], time 14 day): 0.014 mg/dL | GLC ([…], time 14 day): 196.2 mg/dL | IP ([…], time 14 day): 7.1 mg/dL | K ([…], time 14 day): 3.8 meq/L | LDH ([…], time 14 day): 60.8 IU/L | Na ([…], time 14 day): 143.2 meq/L | PL ([…], time 14 day): 135 mg/dL | RALB ([…], time 14 day): 2.6 g/dL | TBIL ([…], time 14 day): 0.062 mg/dL | TC ([…], time 14 day): 61.6 mg/dL | TG ([…], time 14 day): 141.6 mg/dL | TP ([…], time 14 day): 5.7 g/dL | gamma-GTP ([…], time 14 day): 1.2 IU/L | A/G ([…], time 28 day): 0.8 | ALP ([…], time 28 day): 1233.8 IU/L | ALT ([…], time 28 day): 38 IU/L | AST ([…], time 28 day): 63.8 IU/L | BUN ([…], time 28 day): 17.8 mg/dL | CRE ([…], time 28 day): 0.3 mg/dL | Ca ([…], time 28 day): 10.7 mg/dL | Cl ([…], time 28 day): 105.2 meq/L | DBIL ([…], time 28 day): 0.012 mg/dL | GLC ([…], time 28 day): 188.6 mg/dL | IP ([…], time 28 day): 6.7 mg/dL | K ([…], time 28 day): 3.9 meq/L | LDH ([…], time 28 day): 49.8 IU/L | Na ([…], time 28 day): 143 meq/L | PL ([…], time 28 day): 151.2 mg/dL | RALB ([…], time 28 day): 2.7 g/dL | TBIL ([…], time 28 day): 0.058 mg/dL | TC ([…], time 28 day): 68.8 mg/dL | TG ([…], time 28 day): 174.6 mg/dL | TP ([…], time 28 day): 6.2 g/dL | gamma-GTP ([…], time 28 day): 1 IU/L
